Laboratory results from US8383129B2, “Employment of rotavirus proteins, derived proteins and peptides for the modulation of tissue permeability” (priority 2003, dated 2013).
Entries after “also recorded” stand apart in the source; their conditions may differ.

How the values were obtained:
[1] = system: rats with streptozotocin induced diabetes; assay: Blood glucose after insulin administration to diabetic rats; type: in vivo, rat
Description: (§1) A) Generation of Diabetic Rats. • Male Wistar rats (230-250 gr.) were maintained on PicoLab® Rodent Diet 20, sterilized by irradiation and water ad libitum, in the animal house (temperature 22 to 24° C., 50 to 55% humidity). Care and handling of the animals were in accordance to international recommended procedures. • Diabetes mellitus type I was induced with one intraperitoneal shot of streptozotocin (75 mg/Kg weight; Sigma, Cat. No. S0130), diluted in citrate buffer 0.1 M (Sigma, Cat. No. S4641) pH 4.5. Streptozotocin solution was prepared immediately before use and protected from light exposure.
(§2) B) Determination of Glucose Concentration in Blood. • Using heparinized capillary tubing (Chase Scientific Glass Inc. Cat. No. 2501) a drop of blood was taken from the eye orbital sinus of the rats. Blood glucose concentration was determined using reactive strips (One Touch, LIFESCAN, Johnson & Johnson) and a commercial glucometer (One Touch Basic Plus, LIFESCAN, Johnson & Johnson). Glucose concentration was determined in healthy animals and in those that had received the streptozotocin intraperitoneal shot at least three days before being tested.
C) Administration of Insulin to Diabetic Rats. • In order to study the changes in glucose concentration generated by the administration of insulin, the first blood sample was taken from diabetic animals that had fasted overnight. Immediately after, the animals received their food (Lab Diet 5053), and 30 minutes later they were treated according to the following protocols: 1) Human insulin of intermediate action (3-6 IU/rat; Humulin® N, HI-310, Lilly) was parenterally administered. 2) Human insulin of intermediate action (15-30 IU/rat; Humulin® N, HI-310, Lilly) was given orally through an esophagic rat cannula (Fine Science Tools; Cat. No. 18061-75), in a solution of 400 μl of NaHCO3 (1.5 g/100 ml, pH 8.3-8.4), to neutralize gastric acidity. 3) Employing an esophagic rat cannula, 100 μg of GST-VP8 and human insulin of intermediate action (15-30 IU/rat; Humulin® N, HI-310, Lilly) were administered orally in a solution of 400 μl NaHCO3 (1.5 g/100 ml, pH 8.3-8.4). 4) 100 μg of GST-VP8 were administered orally through an esophagic rat cannula. The level of blood glucose was determined at different times after the start of each of the above described procedures.

[2] = system: MDCK monolayers; assay: Transepithelial electrical resistance (TER) across confluent MDCK monolayers; conditions: for TER of MDCK monolayers treated with synthetic cyclic peptides: 100 or 500 μg/ml, versus control cultures; for TER of epithelial (MDCK) monolayers: confluent monolayers (FIG. 1: after 30 min. of treatment); for TER after withdrawal of the protein from the culture media: monolayers washed and transferred to media without GST-VP8; for dose dependence of the effect upon TER: 0.4, 4 or 10 μg/ml
Description: MDCK cells were cultured as previously described (Gonzalez-Mariscal et al., 1990) and used for experiments between passages 70-90.
The degree of sealing of tight junctions was evaluated by measuring the transepithelial electrical resistance (TER) across the monolayer. Standard procedures were followed (Gonzalez-Mariscal et al., 1990). Briefly, monolayers grown over Millipore filters were mounted between two Lucite chambers with an exposed area of 0.23 cm2. Current was delivered via Ag—AgCl electrodes placed at 2.0 cm form the monolayer; the voltage deflection elicited was measured with a second set of electrodes placed at 1.0 mm from the membrane. The contribution if the filter and the bathing solution was subtracted, and all values reported correspond exclusively to the monolayer. Each disk was used for a single determination.
The determination of the TER across an epithelial monolayer was done as described in Example 1.

[3] = system: pancreatic cancer and gastrointestinal tumors; conditions: cited from earlier work
[4] = system: ZO-1; assay: Immunolocalization of TJ protein ZO-1 in MDCK monolayers; type: cell-based; conditions: 4 μg/ml, 1 hr
Description: (§3) MDCK cells were cultured in glass coverslips. Confluent cultures were exposed to 4 μg/ml of GST-VP8 for 1 hr. The cells were then fixed for 30 min with 2% p-formaldehyde in PBS, pH 7.4, and permeabilized for 3 min with 0.2% PBS-TX. Cells were washed five times with PBS and then blocked for 30 minutes with 1% BSA Ig free (Research Organics 1331-a). The monolayers were incubated overnight at 4° C. with rabbit polyclonal antibodies against ZO-1 (Zymed 61-7300, dilution 1:100), Claudin 3 (Zymed 34-1700, dilution 3 μgr/ml) or occludin (Zymed 71-1500, dilution 1:100 in 1% Ig-free BSA). After being washed five times with PBS, the coverslips were incubated for one hour at room temperature with a secondary antibody (FITC-conjugated goat anti-rabbit, catalogue no. 65-6111, diluted 1:100, Zymed). The monolayers were washed five times in PBS before being mounted with the antifade reagent Vectashield (Vector Laboratories Inc.). The fluorescence of the monolayers was examined using a confocal microscope (MRC600, Bio-Rad) with a Krypton-argon laser.

[5] = biological target: T1, claudin-3 (Canis lupus familiaris, UniProt Q95KM5); assay: Immunolocalization of TJ protein claudin-3 in MDCK monolayers; type: cell-based; conditions: 4 μg/ml, 1 hr
T1 construct: endogenous in cells; host or cells: MDCK
T1 sequence (Q95KM5 1-218): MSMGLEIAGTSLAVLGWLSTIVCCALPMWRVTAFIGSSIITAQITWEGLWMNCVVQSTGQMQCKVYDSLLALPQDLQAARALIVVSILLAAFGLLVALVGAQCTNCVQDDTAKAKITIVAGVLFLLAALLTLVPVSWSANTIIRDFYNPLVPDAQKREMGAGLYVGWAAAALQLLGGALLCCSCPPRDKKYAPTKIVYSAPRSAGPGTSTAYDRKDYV
Description: as §3

[6] = biological target: T2, occludin (Canis lupus familiaris, UniProt Q28269); assay: Immunolocalization of TJ protein occludin in MDCK monolayers; type: cell-based; conditions: 4 μg/ml, 1 hr
T2 construct: endogenous in cells; host or cells: MDCK
T2 sequence (Q28269 1-521): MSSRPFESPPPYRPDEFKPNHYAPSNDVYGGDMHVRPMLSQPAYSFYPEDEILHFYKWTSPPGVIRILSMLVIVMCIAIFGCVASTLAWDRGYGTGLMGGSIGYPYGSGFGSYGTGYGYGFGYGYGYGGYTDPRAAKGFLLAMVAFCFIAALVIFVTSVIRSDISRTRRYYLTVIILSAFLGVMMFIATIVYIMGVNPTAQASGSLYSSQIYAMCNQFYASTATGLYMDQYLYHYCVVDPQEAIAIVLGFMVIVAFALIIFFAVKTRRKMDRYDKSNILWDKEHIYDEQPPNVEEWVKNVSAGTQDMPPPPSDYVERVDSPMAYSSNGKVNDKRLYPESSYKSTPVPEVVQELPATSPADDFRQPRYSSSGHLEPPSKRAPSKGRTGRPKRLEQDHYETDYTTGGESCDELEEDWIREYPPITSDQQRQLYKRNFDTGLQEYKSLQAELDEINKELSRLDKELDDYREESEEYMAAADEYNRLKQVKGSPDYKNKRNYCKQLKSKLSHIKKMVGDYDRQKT
Description: as §3

[7] = system: MDCK monolayers; assay: Calcium-switch assay for TJ assembly (development of TER); type: cell-based; conditions: 4 μg/ml
Description: The ability of VP8 to inhibit the development of TJ was assessed utilizing the Ca^2+ switch assay (Gonzalez-Mariscal et al., 1990). Cells were plated at confluency on Millipore filters and incubated for 1 hour in DMEM (normal calcium media, NC; 1.8 mM Ca^2+). Then, the resulting monolayers were washed three times with PBS without Ca^2+ and transferred to minimal essential medium without Ca^2+ (low calcium media, LC; 1-5 μM Ca^2+). Twenty hours later experimental monolayers were transferred to LC media containing 4 μg/ml of GST-VP8 or of GST-VP5 dissolved in LC media, while control monolayers were again incubated in LC media. After 30 minutes, the experimental monolayers were transferred to NC media containing 4 μg/ml of GST-VP8 or of GST-VP5. Control monolayers received instead NC media. The TER was measured at different time points after the monolayers were transferred to NC media.

[8] = system: male Wistar rats; assay: Induction of diabetes: blood glucose after streptozotocin; type: in vivo, rat; conditions: 75 mg/kg intraperitoneal, three days after injection, versus mock injection
Description: as §1, §2

[9] = system: TJ of MDCK monolayers; assay: Freeze-fracture analysis of TJ strands in MDCK monolayers; type: cell-based; conditions: 4 μg/ml, 1 hour
Description: Confluent monolayers of MDCK cells were incubated for 1 hour with 4 μg/ml of GST-VP8 dissolved in DMEM, while control monolayers remained in DMEM. Freeze-fracture replicas were obtained from monolayers fixed with 2.5% glutaraldehyde for 30 minutes, and gradually infiltrated with glycerol up to a 20% concentration, in which they were left for 1 hour. The monolayers were then detached from the substrate and frozen in liquid nitrogen. Freeze fracture was carried out at −120° C., and 2×10^−6 mm Hg using a Balzers apparatus (BAF400T). After evaporation of platinum and carbon, the organic material was digested for 1 hour in chromic mixture. Replicas were extensively washed in distilled water and mounted in Formvar coated grids. The observations were done in an electron microscope JEOL 200EX.
To assess modifications in the pattern of TJ strands, we counted the number of strands intercepting lines drawn perpendicular to the main axis of the junction, every 48 nm, as well as the distance between the upper and lowermost strand. 59 and 54 μm of TJ networks were analysed respectively for control and VP8 treated monolayers.
As has been previously reported (Gonzalez-Mariscal et al., 1985) the amount of junction is defined by the following function:
Where ni is the number of strands in a segment of TJ, and % is the percentage in which that number of strands is present in the sample.
Total junctional width is defined as: […]
Where ni is the distance between the upper and lowermost filament in TJ segment, and %i is the percentage in which that width is present in the sample.

## insulin: Human insulin of intermediate action (Humulin® N, HI-310, Lilly) [reference compound]
[1]; 30 IU, oral
  blood glucose concentration, insulin administered orally alone: the concentration of glucose remains high; also recorded: does not diminish the blood glucose concentration
[1]; Humulin, intermediate action, 6 IU, parenteral
  blood glucose concentration, insulin administered parenterally: decreases the blood glucose concentration

## 183NVTT186 (Rhesus Monkey Rotavirus) [SEQ. ID. No. 7]
[2]
  TER of MDCK monolayers treated with synthetic cyclic peptides: significantly reduces the TER; also recorded: significantly lower TER

## 174IYTY177 (Rhesus Monkey Rotavirus) [SEQ. ID. No. 6]
[2]
  TER of MDCK monolayers treated with synthetic cyclic peptides: no effect; also recorded: TER similar to that of control cultures

## TGFβ
[3]
  tumor growth: significant reduction of tumor growth

## GST-VP8: RRV VP8 fragment (VP4 gene nucleotides 1 to 750) cloned in pGEX-4T-1, fusion protein
[4]
  distribution of ZO-1 (immunofluorescence): strong immuno reactivity in the cytoplasm; also recorded: strong immunoreactivity in the cytoplasm
[5]
  distribution of claudin-3 (immunofluorescence): large areas almost devoid of lateral staining; also recorded: cell border staining becomes barely detectable in large areas of the monolayer
[6]
  distribution of occludin (immunofluorescence): broad and diffuse stain at the cell periphery; also recorded: diffuse and wide label at the cellular boundaries
[7]
  development of TER / epithelial paracellular barrier after transfer from low to normal calcium media: delays the development of the epithelial paracellular barrier
[2]; 4 μg/ml
  TER of epithelial (MDCK) monolayers: significant decrease in TER
  TER after withdrawal of the protein from the culture media: recover their TER
[2]; 4 μg/ml, listed as VP8-GST
  TER of epithelial (MDCK) monolayers: significantly reduces the TER
[2]; 4 μg/ml, listed as GST-VPB
  TER after withdrawal of the protein from the culture media: the TER of the monolayers is restored
[2]
  dose dependence of the effect upon TER: dose-dependent decrease in TER

## CN(N=O)C(=O)N[C@H]1C(O)O[C@H](CO)[C@@H](O)[C@@H]1O (mixture of isomers) [streptozotocin]
[8]
  concentration of blood glucose: significantly increased the level of glucose in the blood
[8]; listed as Streptozotocin
  concentration of blood glucose: significantly increases the concentration of blood glucose

## VP8: polypeptide derived from rotavirus protein VP4; used in the experiments as GST or His fusion protein
[9]
  TJ freeze fracture pattern: induces the appearance of loose ends oriented perpendicular to the network of TJ fibrils
[9]; versus control monolayers
  distribution of the number of TJ strands: no change
  total amount of junction: no change
[9]; control monolayers 0.17
  Number of loose ends/linear amount of junction in μm: 0.32
[7]
  development of TER / epithelial paracellular barrier after transfer from low to normal calcium media: a clear inhibition in the development of TER
[1]; VP8 100 μg and insulin 30 IU, oral
  blood glucose concentration, insulin administered orally together with VP8: the blood glucose concentration diminishes; also recorded: diminishes significantly
[1]; VP8 100 μg, oral, no insulin
  blood glucose concentration, VP8 administered orally alone: Only with the latter treatment the blood glucose concentration diminished
[2]; 4 μg/ml
  TER of epithelial (MDCK) monolayers: diminishes the TER
[2]; 4 μg/ml, protein kept in media
  reversibility with time of the effect upon TER: reversible with time; also recorded: in a reversible manner
[2]
  dose dependence of the effect upon TER: dose dependent

## 144VVKT147 (Rhesus Monkey Rotavirus) [SEQ. ID. No. 4]
[2]
  TER of MDCK monolayers treated with synthetic cyclic peptides: no effect; also recorded: TER similar to that of control cultures
